Assays:
[1] = Cmax in Wistar Hann rat CSF at 5 mg/kg, sc; format: ADME, organism-based, Cerebrospinal fluid; parameters: dose 5 mg/kg, route subcutaneous
[2] = Ratio of unbound AUC in brain to plasma in Wistar Hann rat at 5 mg/kg, sc after 4 hrs; format: ADME, organism-based; settings: brain and plasma, read-out: Ratio AUC
[3] = Ratio of drug level in brain to plasma in Wistar Hann rat at 5 mg/kg, sc after 1 hr; format: ADME, organism-based
[4] = Drug concentration in Wistar Hann rat brain at 5 mg/kg, sc after 2 hrs; format: ADME, organism-based; settings: read-out: Drug uptake
[5] = Tmax in Wistar Hann rat at 2 mg/kg, po; format: ADME, organism-based; settings: in vivo
[6] = AUC (0 to 24 hrs) in Wistar Hann rat at 0.5 mg/kg, iv; format: ADME, organism-based; parameters: dose 0.5 mg/kg, time < 24 hr, route intravenous; settings: in vivo
[7] = Ratio of drug level in CSF to plasma in Wistar Hann rat at 5 mg/kg, sc after 4 hrs; format: ADME, organism-based; settings: CSF and plasma
[8] = Drug concentration in Wistar Hann rat plasma at 5 mg/kg, sc after 4 hrs; format: ADME, organism-based
[9] = Cmax in Wistar Hann rat at 2 mg/kg, po; format: ADME, organism-based; parameters: dose 2 mg/kg, route oral; settings: in vivo
[10] = Ratio drug level in brain to plasma in C57BL/6j mouse at […], sc after 1 hr; format: ADME, organism-based; settings: read-out: BPR
[11] = Tmax in Wistar Hann rat CSF at 5 mg/kg, sc; format: ADME, organism-based, Cerebrospinal fluid
Plasma [12] = assay: Fraction unbound in C57BL/6j mouse plasma at 10 mg/kg, sc after 0.5 hrs; format: ADME, organism-based; settings: in vivo
[13] = Drug concentration in Wistar Hann rat plasma at 5 mg/kg, sc after 1 hr; format: ADME, organism-based
[14] = Ratio of unbound AUC in brain to plasma in C57BL/6j mouse at 10 mg/kg, sc after 4 hrs; format: ADME, organism-based; settings: read-out: Ratio AUC
[15] = Drug concentration in Wistar Hann rat plasma at 5 mg/kg, sc after 2 hrs; format: ADME, organism-based
[16] = Cmax in Wistar Hann rat plasma at 5 mg/kg, sc; format: ADME, organism-based; parameters: dose 5 mg/kg, route subcutaneous
[17] = Ratio of unbound AUC in brain to plasma in C57BL/6j mouse at 10 mg/kg, sc after 1 hr; format: ADME, organism-based; settings: read-out: Ratio AUC
[18] = Ratio drug level in brain to plasma in C57BL/6j mouse at 10 mg/kg, sc after 0.5 hrs; format: ADME, organism-based; settings: read-out: BPR
Plasma [19] = assay: Fraction unbound in Wistar Hann rat plasma at 5 mg/kg, sc after 1 hr; format: ADME, organism-based; settings: in vivo
[20] = Ratio drug level in brain to plasma in C57BL/6j mouse at 10 mg/kg, sc after 1 hr; format: ADME, organism-based; settings: read-out: BPR
[21] = Ratio of unbound AUC in brain to plasma in Wistar Hann rat at 5 mg/kg, sc after 6 hrs; format: ADME, organism-based; settings: brain and plasma, read-out: Ratio AUC
[22] = Drug concentration in Wistar Hann rat CSF at 5 mg/kg, sc after 4 hrs; format: ADME, organism-based, Cerebrospinal fluid; settings: read-out: Drug uptake
Plasma [23] = assay: Fraction unbound in Wistar Hann rat plasma at 5 mg/kg, sc after 4 hrs; format: ADME, organism-based; settings: in vivo
[24] = Volume of distribution at steady state in Wistar Hann rat at 0.5 mg/kg, iv; format: ADME, organism-based; settings: in vivo, read-out: Vdss
[25] = AUC (0 to infinity) in Wistar Hann rat brain at 5 mg/kg, sc; format: ADME, organism-based; parameters: dose 5 mg/kg, route subcutaneous, time infinity
[26] = Ratio of drug level in CSF to plasma in Wistar Hann rat at 5 mg/kg, sc after 2 hrs; format: ADME, organism-based; settings: CSF and plasma
Plasma [27] = assay: Fraction unbound in C57BL/6j mouse plasma at 10 mg/kg, sc after 2 hrs; format: ADME, organism-based; settings: in vivo
Plasma [28] = assay: Fraction unbound in C57BL/6j mouse plasma at […], sc after 1 hr; format: ADME, organism-based; settings: in vivo
[29] = Oral bioavailability in Wistar Hann rat; format: ADME, organism-based; settings: in vivo
[30] = AUC (0 to infinity) in Wistar Hann rat CSF at 5 mg/kg, sc; format: ADME, organism-based, Cerebrospinal fluid; parameters: dose 5 mg/kg, time infinity, route subcutaneous
[31] = Ratio of unbound AUC in brain to plasma in C57BL/6j mouse at 10 mg/kg, sc after 2 hrs; format: ADME, organism-based; settings: read-out: Ratio AUC
[32] = Ratio of unbound AUC in brain to plasma in C57BL/6j mouse at 10 mg/kg, sc after 0.5 hrs; format: ADME, organism-based; settings: read-out: Ratio AUC
[33] = Oral bioavailability in Wistar Hann rat at 2 mg/kg; format: ADME, organism-based; settings: in vivo
[34] = Ratio of drug level in brain to plasma in Wistar Hann rat at 5 mg/kg, sc after 2 hrs; format: ADME, organism-based
Plasma [35] = assay: Fraction unbound in C57BL/6j mouse plasma at 10 mg/kg, sc after 4 hrs; format: ADME, organism-based; settings: in vivo
[36] = Ratio of unbound AUC in brain to plasma in Wistar Hann rat at 5 mg/kg, sc after 1 hr; format: ADME, organism-based; settings: read-out: Ratio AUC

`Cn1ccc(-c2ccc(Cn3cc(C(=O)N[C@H]4CCOC[C@@H]4O)c4ncccc43)cc2)n1` gave a Cmax [1] of 0.0622 µg/mL, a Kp uu at 4 h [2] of 0.16 and a Kp at 1 h [3] of 0.21. For the same compound, the concentration at 2 h [4] was 0.944 µM, the Tmax [5] was 1.5 h and the AUC(0-t) at 24 h [6] was 1.66 µg·h/mL. For the same compound, the Kp at 4 h [7] was 0.02, the concentration at 4 h [8] was 3.19 µM and the Cmax [9] was 0.6 µg/mL. The Kp at 1 h [10] was 0.04, the Tmax [11] was 2 h and the “Cp(f)” value (Plasma [12]) was 0.295 µM. It also gave a concentration at 1 h [13] of 5.03 µM, a Kp uu at 4 h [14] of 0.24 and a concentration at 2 h [15] of 5.46 µM. The Cmax [16] was 2.36 µg/mL, the Kp uu at 1 h [17] was 0.18 and the Kp at 0.5 h [18] was 0.14. For the same compound, the “Cp(f)” value (Plasma [19]) was 0.463 µM, the Kp at 1 h [20] was 0.07 and the Kp uu at 6 h [21] was 0.14. The concentration at 4 h [22] was 0.0762 µM, the “Cp(f)” value (Plasma [23]) was 0.293 µM and the Vd [24] was 1.49 L/kg. For the same compound, the AUC(0-inf) [25] was 2.68 µg·h/mL, the Kp at 2 h [26] was 0.03 and the “Cp(f)” value (Plasma [27]) was 0.379 µM. The “Cp(f)” value (Plasma [28]) was 0.3022 µM, the bioavailability [29] was 69% and the AUC(0-inf) [30] was 0.38 µg·h/mL. For the same compound, the Kp uu at 2 h [31] was 0.16, the Kp uu at 0.5 h [32] was 0.34 and the bioavailability [33] was 67.9%. The Kp at 2 h [34] was 0.18, the “Cp(f)” value (Plasma [35]) was 0.218 µM and the Kp uu at 1 h [36] was 0.15.

— ChEMBL document CHEMBL3745675, “Design and optimization of selective azaindole amide M1 positive allosteric modulators” (Bioorg Med Chem Lett, 2016)
